Values joined by “and” are separate entries in the source; they are usually repeats but may differ in a detail not shown here. Equal entries are not always repeated.

Assay [1] concerns metastatic colorectal cancer. The conditions noted are these: cited from earlier work.
Assay [2] relates to PC-3 human prostate carcinoma xenografts. In words: PC-3 xenograft combination therapy (Example 3, first study).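 As to all read-outs here: subcutaneous PC-3 tumors in male athymic NCr nude mice aged 6-7 weeks, combination agents dosed within 30 min of each other, animals euthanized once tumors exceeded 2 g.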 The conditions noted are these: for Tumor Growth Delay: T-C, evaluation size 750 mg; for % T/C Day 22: VGX-100 40 mg/kg IP, bevacizumab 10 mg/kg IP, docetaxel 10 mg/kg IV, median tumor mass vs control; for % TFS (tumor free survivors): at termination, Day 160; for Complete regression / Partial regression / Tumor free survivor: yes/no; for Total CR / Total PR / Total TFS: number of animals of 10.
Experimental: Docetaxel was administered intravenously at 10 mg/kg weekly for three injections.
HIgG1 Isotype control-humanised antibody (6.4-12.36 mg/ml) and VGX-100 (5.53 and 5.75 mg/ml) were provided as frozen colorless stock solutions in Dulbecco's phosphate buffered saline (DPBS) and stored from light at −80° C. The stock solutions were thawed and stored at 4° C. when treatment began. The dosing solutions (40 mg/kg in 0.2 ml/20 g body weight) were prepared by diluting the stock solution with DPBS. The resulting formulations were clear with pH values ranging from 7.02-7.21. The dosing vials were kept on wet ice during dosing, gently pipetted and not aspirated through a needle except during administration. Dosing solutions were prepared weekly in DPBS and stored protected from light at 4° C. while not in use.
Docetaxel (lot no. D9A095) was manufactured by Sanofi-Aventis and obtained from McKesson as a pale yellow solution in 50% EtOH/50% Tween80. It was stored protected from light at 4° C. Docetaxel was diluted as directed on the package insert with the provided diluent (sterile water) to produce a clear and colorless 10 mg/ml stock solution. On each treatment day, a fresh 10 mg/ml stock was prepared and further diluted with water to achieve the appropriate concentration. The resulting solution was clear and colorless with a pH of 7.16.
All test articles were administered within two hours of preparation. For groups receiving combination therapy, the drugs were administered in the order presented in Table 1 and within 30 minutes of one another.
Male NCR(NCRNU-M) athymic mice were obtained from Taconic. They were 6-7 weeks old on Day 1 of the experiment. The mice were fed irradiated Rodent Diet 5053 (LabDiet™) and water ad libitum. The mice were housed in static cages with Bed-O'Cobs™ bedding inside Biobubble® Clean Rooms that provide H.E.P.A filtered air into the bubble environment at 100 complete air changes per hour. All treatments, body weight determinations, and tumor measurements were carried out in the bubble environment. The environment was controlled to a temperature range of 21.1±1.1° C. (70±2° F.) and a humidity range of 30-70%.
Test mice were implanted subcutaneously on Day 0. […] Mice with tumors in excess of 2 g or with ulcerated tumors were euthanized, as were those found in obvious distress or in a moribund condition.
PC-3 cells were obtained from ATCC and expanded using Ham's F-12 media supplemented with 10% fetal bovine serum and 1% penicillin-streptomycin-glutamine in 5% CO2 atmosphere at 37° C. When expansion was complete, the cells were collected using Trypsin (Cell Gro®), the trypsin neutralized, and the cells pooled for implantation. The PC-3 (Passage 10) cell suspension was counted using trypan blue exclusion with a hemacytometer. The cell suspension was reduced to a pellet using an Eppendorf 5810R centrifuge at 1500 rpm (300×g) for 5 minutes at 4° C. A 2.5×10^7 cells/ml suspension was prepared in 50% serum free media and 50% Matrigel®. Pre-injection viability was 97.7%. Test animals were implanted subcutaneously on Day 0 with 5×10^6 cells/animal (0.2 ml) using a 27-gauge needle and syringe. The cell suspension was maintained on wet ice to minimize the loss of viability and inverted frequently to maintain a uniform cell suspension during the inoculation procedure.
Treatments began on Day 8, when the mean estimated tumor mass for all groups in the experiment was 129 mg (range of group means, 123-134 mg). All animals weighed≧19.2 g at the initiation of therapy. Mean group body weights at first treatment were matched (range of group means, 21.5-22.8 g). All animals were dosed according to individual body weight on the day of treatment (0.2 ml/20 g).

The test system of assay [3] is KP4 human pancreatic tumors. In words: KP4 pancreatic xenograft (Example 8). The conditions noted are these: VGX-100 40 mg/kg and/or Avastin 10 mg/kg; for % T/C: after 30 days.
Experimental: VGX-100 was administered at 20 or 40 mg/kg for single therapy and at 40/mg/kg for combination therapy.
To initiate the study, 5×10^6 of KP4 cells suspended in 100 μl of a mixture of medium/Matrigel (1:1) were subcutaneously implanted to the nude mice in the right flank region. Cancer cells were implanted into 90 mice. Animals were monitored for tumor growth daily after cell implantation. When tumor volumes reached 80-100 mm^3, mice were randomized into 5 groups of 10 mice each using only mice having tumor volumes closest to the mean value. Mice with tumor volumes too big or too small were excluded from the study. Tumor volumes were measured using the formula V=L×W×H×π/6, where L and W represented the longer and shorter diameters of the tumor and H represented the height of the tumor. The treatment with drugs was initiated on the day after randomization. […] All treatments were administered intraperitoneally twice weekly for 30 days.
Throughout the entire study, tumor volumes were measured twice weekly and body weights once weekly. […] Unscheduled sacrifices were performed if tumor volumes reached>2,000 mm^3, animals lost>25% of their original body weights, tumor ulceration appeared, or mice became moribund. At the end of the experiment, tumors were removed, embedded in Optimal Cutting Temperature (OCT), and stored at −80° C. for IHC analysis. Gross examination was conducted on liver, lung, spleen, kidneys, testes, and prostate. If no abnormal observation was detected on these organs, the tissues were discarded.
Tumor size was measured 2-3 times weekly with calipers. Size of tumors relative to controls is calculated after 30 days of treatment.
For assay [4], the system named is U87MG human glioblastoma tumors. The assay can be described thus: U87MG glioblastoma xenograft, combination (Example 7). Format: in vivo, nude mice. The conditions noted are these: VGX-100 40 mg/kg, bevacizumab 10 mg/kg, administered alone. How it is done:
This experiment was conducted broadly in accordance with Example 3, except that U87MG glioblastoma cells were substituted for PC-3 prostate cancer cells. Cells from a human glioblastoma tumor line (U87MG) were implanted subcutaneously into mice and grown until the tumors reached an average size of approximately 150 mg. […] There were 10 animals per treatment group.

Where [5] appears, read: Mayo Clinic or Roswell Park regimen, newly diagnosed.
The mark [6] stands for this setting: tumor doubling time, individual animals.
[7] abbreviates: subjects progressed following 5-FU therapy.

Consider 5-FU/leucovorin, for which, in assay [1] (setting [5]), the Median survival is given as 12-14 months and the “Median time to disease progression” value is 4-5 months.

For the compound `CC(=O)O[C@@]12CO[C@@H]1C[C@H](O)[C@@]1(C)C(=O)[C@H](O)C3=C(C)[C@@H](OC(=O)[C@H](O)[C@@H](NC(=O)OC(C)(C)C)c4ccccc4)C[C@@](O)([C@@H](OC(=O)c4ccccc4)[C@H]21)C3(C)C` [Docetaxel, docetaxel], the “Time to evaluation size” value in assay [2] (750 mg, individual animals) was 81.0 days (2×) and >160 days (2×) and 62.3 days and 89.1 days and 72.1 days and 69.0 days and 62.5 days and 66.5 days. In assay [2] (same doses), the “Tumor Growth Delay” value amounted to 56.5 days; the “% TFS (tumor free survivors)” value was “Twenty percent and 20%”; the “% CR (complete regression)” value is 100%; the “% PR (partial regression)” value was found to be 0%. Moreover, in assay [2] (same doses), the “Anticancer activity of regimen” value is “highly active” and the “Apparent Net Tumor Cell Kill (logs)” value is reported as 1.13 logs. Moreover, in assay [2], the “% T/C Day 22” value came out at 8%, the “Total CR” value amounted to 10, the “Total PR” value was 0 and the “Total TFS” value came out at 2. Besides, the “% T/C: tumor burden in treatment group compared to control” value in assay [2] (at day 160) was 82.4%. Moreover, in assay [2] (group mean), the “Td” value was 8.8 days and the “Time to fold growth EP” value stood at 86.0 days. In assay [2] (group median), the “Td” value worked out at 8.8 days, the “Time to evaluation size” value is on record as 76.5 days and the “Time to fold growth EP” value was determined as 69.6 days. In assay [2] (individual animals), the “Time to fold growth EP” value was 78.1 days and >160 days (2×) and 57.4 days and 81.6 days and 65.4 days and 58.5 days and 60.0 days and 73.3 days and 65.9 days; the Complete regression entry is “yes”; the Partial regression entry is given as “no”; the Tumor free survivor entry was “no (8×) and yes (2×)”. Further, the “Average Survival” value in assay [2] (study to day 160) turned out to be 108.6 days. Also, in assay [2] (setting [6]), the “Td” value was 5.1 days and 8.5 days and 9.4 days and 9.1 days and 13.2 days and 6.5 days and 13.4 days and 5.0 days.

As to `CCc1c2c(nc3ccc(OC(=O)N4CCC(N5CCCCC5)CC4)cc13)-c1cc3c(c(=O)n1C2)COC(=O)[C@]3(O)CC` [irinotecan], in assay [1] (setting [7]), the “Prolongation of survival vs best supportive care” value is given as 2.8 month and the “Prolongation of survival vs infusional 5-FU” value is on record as 2.2 month.

In the case of “Bevacizumab: recombinant humanized VEGF-A monoclonal antibody”, the “Mean Tumor Vol. at D30 (mm3)” value in assay [3] is recorded as 596.7 mm3. For the same compound, in assay [3] (listed as Avastin), the “% T/C” value was 30.4%. For the same compound, the “% T/C” value in assay [3] (listed as bevacizumab) is reported as 30.4%. Moreover, the “Time to evaluation size” value in assay [2] (750 mg, individual animals) is 36.3 days and 24.4 days and 25.8 days and 33.0 days and 30.5 days and 25.2 days and 25.4 days and 44.3 days and 18.0 days and 22.7 days. Further, in assay [2] (same doses), the “Tumor Growth Delay” value is on record as 5.6 days, the “% TFS (tumor free survivors)” value turned out to be 0%, the “% CR (complete regression)” value came out at 0% and the “% PR (partial regression)” value is listed as 0%. Further, in assay [2] (same doses), the “Apparent Net Tumor Cell Kill (logs)” value is listed as −4.91 logs and the “Tumor regressions” value is reported as “No tumor regressions were observed”. In addition, in assay [2], the “% T/C Day 22” value is 70%, the “Total CR” value worked out at 0, the “Total PR” value is reported as 0 and the “Total TFS” value was determined as 0. In addition, in assay [2] (group mean), the “Td” value stood at 12.2 days and the “Time to evaluation size” value is recorded as 28.6 days. For the same compound, in assay [2] (group median), the “Td” value worked out at 9.6 days and the “Time to evaluation size” value stood at 25.6 days. Besides, in assay [2] (individual animals), the Complete regression result is on record as “no”, the Partial regression result is listed as “no” and the Tumor free survivor entry is reported as “no”. Further, in assay [2] (setting [6]), the “Td” value is 16.9 days and 7.4 days and 7.5 days and 13.7 days and 16.8 days and 10.6 days and 8.6 days and 27.8 days and 4.8 days and 8.4 days. In addition, in assay [4], the “Effect on tumor growth” value is recorded as “only a minor effect”.

Values taken from patent publication US20130344065A1, “Combination Treatment with VEGF-C Antagonists” (Vegenics Pty Ltd, priority 2010, published 2013).
